Patent EP4663206A1, “NEXT-GENERATION ADC LINKER PLATFORM TECHNOLOGY AND POLYSACCHARIDE CROSS-LINKED COLLOIDAL PARTICLE-DRUG CONJUGATE” (Inventera Inc., priority 2023, dated 2024)

Columns and labels:
cancer cells = conditions: cited from earlier work
[1] = Phantom study, 3T MRI scanner (relaxivity)
Description: The measured r1 and r2 relaxivity values of NEMO-103 were 2.0 mM^-1s^-1 and 2.3 mM^-1s^-1, respectively (FIGS. 24d and 24e). The r2/r1 ratio, which is an important parameter for T1 MRI contrast agents, was calculated to be 1.15. […] For comparison, the measured r1 and r2 values of Dotarem® were 4.7 mM^-1s^-1 and 5.2 mM^-1s^-1, respectively, resulting in an r2/r1 ratio of 1.11.

[2] = stated in discussion, according to current reports; cited from earlier work
[3] = Shoulder MR arthrography image quality assessment, clinical comparative study NEMO-103 vs GBCA; format: in vivo, humans; conditions: supine position, over time
Description: FIGS. 25 and 26 illustrate the phase design and image quality assessment method of a clinical comparative study between NEMO-103, a dextran-crosslinked T1 MRI contrast agent, and Dotarem®, a representative clinical gadolinium-based contrast agent (GBCA) for T1 MRI. Phase I refers to MR arthrography (MRA) images acquired within 30 minutes after contrast agent administration. Phase II refers to MRA images acquired between 30 and 60 minutes post-administration, and Phase III refers to MRA images acquired between 110 and 130 minutes post-administration. In Comparison 1, no quantitative or qualitative differences were observed between NEMO-103-based MRA images acquired during Phase I and Phase II (FIG. 27). […] In Comparison 3, which compared NEMO-103-based MRA images from Phase II with GBCA-based MRA images, more prominent differences were observed (FIG. 29).
Amid growing safety concerns surrounding gadolinium-based contrast agents (GBCAs), iron (Fe)-based alternatives have emerged as a subject of active investigation. The present example evaluates the efficacy of NEMO-103 in comparison with a GBCA by assessing contrast-to-noise ratio (CNR) and MR arthrography (MRA) image quality. […] Both contrast agents effectively delineated key anatomical structures, including tissue contrast, sharpness, rotator cuff tendons, labral structures, and adjacent cartilage. […]

[4] = tested on: BT-474 human breast cancer xenograft model; experiment: In vivo antitumor efficacy in cancer xenograft mouse model (intratumoral injection, tumor volume); set-up: species or system Balb/c nude mice; conditions: alone; Doxorubicin 2 mg/kg; TLRA1 agonist 6 nmol/mL (0.3 nmol)
Description: The antitumor efficacy of the drug was assessed by monitoring changes in tumor volume following administration. Cdex@TLRA1 and Cdex@TLRB1 were administered in a cancer xenograft mouse model to evaluate antitumor immune responses and subsequent tumor cell death.
Balb/c nude mice (6 weeks old) were used to establish a BT-474 human breast cancer xenograft model for in vivo efficacy evaluation. Approximately 1 × 10^6 BT-474 breast cancer cells were mixed with Matrigel at a 1:1 volume ratio and subcutaneously implanted into the dorsal flank of each mouse in a volume of approximately 100 µL.
Once tumor volumes reached approximately 50 mm^3, Cdex@TLRA1 and Cdex@TLRB1 were directly injected into the tumor masses, and tumor growth was monitored over a 2-week period to evaluate drug efficacy. The test substances were administered on days 0, 4, 7, 12, and 15 (see FIG. 18a). To enhance antitumor effects, doxorubicin was administered to all groups except the negative control group on days 1 and 9. A separate "doxorubicin only" group was included for comparative purposes (see FIG. 18b and Table 6).

SMILES: CC[C@@]1(O)C(=O)OCc2c1cc1n(c2=O)Cc2c-1nc1cc(F)c(C)c3c1c2[C@@H](N)CC3 [DXd, exatecan]
- activity in cancer cells compared to SN-38 (cancer cells): approximately 10 fold

SMILES: CNC[C@H](O)[C@@H](O)[C@H](O)[C@H](O)CO.O=C([O-])CN1CCN(CC(=O)[O-])CCN(CC(=O)O)CCN(CC(=O)[O-])CC1.[Gd+3] [Dotarem]
- r1 relaxivity [1]: 4.7 mM⁻¹ s⁻¹
- hydrodynamic size [2]: < 1 nm
- incidence of axillary pouch obliteration compared to NEMO-103 [3]: relatively higher incidence

SMILES: COc1cccc2c1C(=O)c1c(O)c3c(c(O)c1C2=O)C[C@@](O)(C(=O)CO)C[C@@H]3O[C@H]1C[C@H](N)[C@H](O)[C@H](C)O1 [Doxorubicin]
- tumor growth rate [4]: reduction in tumor growth rate
- tumor size [4]: no significant decrease in tumor size
